Assay results published in US20070255041A1, “Bioengineered Vehicles for Targeted Nucleic Acid Delivery” (priority 2000, published 2007).

Assays:
[1] = tested on: 3T3 cells (c-erbB-2 non-expressing); test: Transfection of 3T3 cells with pXL3031 luciferase plasmid; format: cell-based; settings: 10% serum, mean of three measures
Experimental: (§1) Transfections were done using C6.5-H1, C6ML3-9 sFv′-H1, C6ML3-9 sFv′-P1 (comprising C6ML3-9 coupled to human protamine P1 peptide) and C6ML3-9 sFv′-salmon protamine (C6ML3-9-SP). Conjugates were mixed in […] with pXL3031 (pCOR Luc^+) reporter plasmid at different ratios and, after a 10 minute incubation, used to transfect c-erbB-2 expressing (3T3-HER2) or non-expressing (3T3) cell lines. Transfection were performed in the presence of 10% fetal calf serum (FCS) for 3T3-HER2, or 10% calf serum (CS) for 3T3. After 24 hours of incubation, cells were washed twice with PBS and lysed with 200 μl of cell culture lysis reagent (Promega). Luciferase expression was quantified using a luciferase assay kit (Promega) and a Lumat LB9501 luminometer (EG and G). Light emission (RLU) was normalized to the protein concentration of each sample, measured using the Pierce BCA assay. Conditions of transfection are summarized below for each experiment.
(§2) All transfections were done in the presence of 10% serum. Best transfection conditions are indicated for each compound. All complexes with sFv′ conjugates were formed in 20 mM NaCl, and all complexes with RPR120535 were formed in 20 mM NaHCO3150 mM NaCl. Values correspond to the mean of three different measures of the same assay.

[2] = tested on: 3T3-HER2 cells (c-erbB-2 expressing); test: Transfection of 3T3-HER2 cells with pXL3031 luciferase plasmid; format: cell-based; settings: for RLU/μg of cell proteins: 10% serum, mean of three measures
Experimental: as §1, §2

[3] = tested on: plasmid DNA (pGL-control or pXL3031); test: Gel mobility shift analysis of complex formation with plasmid DNA; format: binding; settings: 5.8 pmole (360 ng) conjugate; FIG. 18
Experimental: The ability of the anti-erbB-2 C6ML3-9 sFv′-salmone protamine (SP) conjugates to complex with plasmid DNA was tested by a gel mobility shift analysis.
The DNA was added last, and the mixture incubated on ice for 1 to 1.5 hour (in the case of kinetics studies, incubation time was from 5 minutes to 60 minutes as indicated). 2 μl of loading buffer (50% glycerol in 1×TE with dye) was added to the 20 μl reaction. The reaction was electrophoresed on 0.8% agarose gel in 1×TAE, 150 V for about an hour at room temperature and stained with EtBr overnight.

[4] = tested on: MCF-7 cells; test: Luciferase reporter gene delivery to erbB-2 negative control cells; format: cell-based; settings: FIG. 19
[5] = tested on: SK-OV-3 cells; test: Luciferase reporter gene delivery to erbB-2 positive cells; format: cell-based, human
Experimental: Gene delivery experiments were carried out with the anti-erbB-2 sFv′-[salmon protamine]-DNA complex (C6.5 sFv′-SP-DNA or C6ML3-9 sFv′-SP-DNA). The reporter DNA plasmid was the pGL3-control from Promega, which encodes the luciferase gene under control of the SV40 early promoter and enhancers. The erbB-2 positive cell line used in the study was SK-OV-3, a human ovarian cancer cell line. 200 ng of pGL3 reporter plasmid DNA was incubated with increasing amounts of either the sFv′-[salmon protamine] conjugates (sFv′-SP), or the sFv′ mixed with salmon protamine (SP) alone as described. Formation of the protein-DNA complex was confirmed by gel mobility shift analysis (data not shown). The mixture of protein and DNA were then incubated with SK-OV-3 cells in the absence or presence of 100 μM chloroquine. The protein-DNA mixture was removed from the cell culture after a 20 hour incubation. Cells were harvested for luciferase assays at about 40 hours post-incubation using a Dynex MLX Luminometer. The experiment data presented are an averaged data from quadruplet samples of a typical experiment.

[6] = tested on: SK-OV-3 cells; test: pGeneGrip Rhodamine/GFP plasmid delivery, fluorescent microscopy, erbB-2 positive cells; format: cell-based, human; settings: SK-OV-3, at 48 hours
From the text: pGeneGrip Rhodamine/GFP plasmid (Gene Therapy Systems) was used as another reporter plasmid for studying C6.5 sFv′-SP and C6ML3-9 sFv′-SP-mediated gene delivery. In this case, plasmid DNA encoding green fluorescent protein (GFP) was labeled with rhodamine, which allows one to follow internalization of the plasmid DNA as well as the expression of GFP. This reporter facilitated evaluation of the gene delivery efficiency at both DNA and protein expression levels. […] SK-OV-3 and MCF-7 cells were incubated with the protein/DNA complexes and fixed at 6, 24, 48, and 72 hours post-incubation for fluorescent microscopy. FIG. 21 represents the data from the 48 hour time point. […] The rhodamine labeled DNA could be seen inside of SK-OV-3 cells at 24 hours (data not shown). However, the GFP gene expression, was very low, about 1-2% cells being GFP positive in the case of C6ML3-9 sFv′-SP-mediated delivery at 48 hours. It should be noted that, although low, GFP expression level still correlates with the amount of DNA inside of the cells (FIG. 21, compare C6.5 sFv′-SP-DNA with that C6ML3-9 sFv′-SP-DNA). […] The low expression of GFP may be caused by the difficulty of plasmid DNA either escaping from the endosomes or reaching the nucleus.

[7] = 3T3-HER2, 7 μg/μg of DNA, no chloroquine

Question: Which results are given for “C6ML3-9 sFv′-H1: C6ML3-9 sFv′ reacted with maleimide-H1 peptide (residues 166 to 192 of human histone H1)”?
Answer: RLU/μg of cell proteins ([1]; 7 μg/μg of DNA, no chloroquine): 0 (±0) RLU/μg of cell proteins; RLU/μg of cell proteins [2, 7]: 27400 (±6030) RLU/μg of cell proteins; increase in transfection efficiency ([2]; 3T3-HER2, increasing conjugate to DNA mass ratio from 4 to 10, FIG. 26): 10 fold; transfection activity on addition of free C6ML3-9 sFv′ or C6ML3-9 sFv′-H1 complexed to pBks plasmid ([2]; competition, specificity of gene transfer, FIG. 25): could be reduced

Question: What does the source list for “C6ML3-9 sFv′-SP: C6ML3-9 sFv′ coupled via Sulfo-SMCC at its C-terminal sulfhydryl to salmon protamine”?
Answer: time in which the conjugate-DNA complex could form [3]: 5 min; RLU/μg of cell proteins ([1]; 4 μg/μg of DNA, 200 μM chloroquine): 1080 (±715) RLU/μg of cell proteins; luciferase activity in MCF-7 cells (erbB-2 negative control) [4]: minimal luciferase activity; luciferase gene delivery to SK-OV-3 cells ([5]; 200 ng pGL3-control plasmid, 20 hour incubation, luciferase assay about 40 hours post-incubation, FIG. 19): delivered luciferase reporter plasmids into SK-OV-3 cells; chloroquine dependence of luciferase gene delivery to SK-OV-3 cells ([5]; absence or presence of 100 μM chloroquine, FIG. 20): chloroquine-dependent; luciferase gene delivery to SK-OV-3 cells after pre-incubating the cells with free C6ML3-9 sFv′ ([5]; competition, data not shown): could be competed away; cells being GFP positive (GFP gene expression) [6]: 1-2%; RLU/μg of cell proteins ([2]; 3T3-HER2, 4 μg/μg of DNA, 200 μM chloroquine): 220000 (±20000) RLU/μg of cell proteins

Question: Which results are given for `CCCCCCCCCCCCCCCCCCN(CCCCCCCCCCCCCCCCCC)C(=O)CNC(=O)CNCCCNCCCCNCCCN` [RPR120535, reference compound]?
Answer: RLU/μg of cell proteins ([1]; 6 nmoles/μg of DNA, no chloroquine): 26100000 RLU/μg of cell proteins; RLU/μg of cell proteins ([2]; 3T3-HER2, 6 nmoles/μg of DNA, no chloroquine): 2980000 RLU/μg of cell proteins

Question: For “C6ML3-9 sFv′-P1: C6ML3-9 coupled to human protamine P1 peptide (residues 11 to 28)”, which “RLU/μg of cell proteins” value ([1]; 6 μg/μg of DNA, 150 μM chloroquine) is on record?
Answer: Its value is 9 (±15) RLU/μg of cell proteins.

Question: What about the “RLU/μg of cell proteins” value ([2]; 3T3-HER2, 6 μg/μg of DNA, 150 μM chloroquine) of the same molecule?
Answer: The value was 10024 (±3757) RLU/μg of cell proteins.

B1: C6.5-H1: C6.5 sFv′ conjugated to the human histone H1 peptide (conjugate)
scFv: QVQLLQSGAELKKPGESLKISCKGSGYSFTSYWIAWVRQMPGKGLEYMGLIYPGDSDTKYSPSFQGQVTISVDKSVSTAYLQWSSLKPSDSAVYFCARHDVGYCSSSNCAKWPEYFQHWGQGTLVTVSSGGGGSGGGGSGGGGSQSVLTQPPSVSAAPGQKVTISCSGSSSNIGNNYVSWYQQLPGTAPKLLIYGHTNRPAGVPDRFSGSKSGTSASLAISGFRSEDEADYYCAAWDDSLSGWVFGGGTKLTVLGHHHHHHGGGGC
peptide: AKKAKSPKKAKAAKPKKAPKSPAKAK
Question: How did the “RLU/μg of cell proteins” value ([1]; 7 μg/μg of DNA, no chloroquine) turn out when B1 was run?
Answer: Its value is 6 (±7) RLU/μg of cell proteins.

Question: And the “RLU/μg of cell proteins” value [2, 7]?
Answer: The value was 659 (±240) RLU/μg of cell proteins.
